Test results as given in patent US20240376121A1, “COMPOUNDS AND USES THEREOF” (Foghorn Therapeutics Inc., priority 2021, published 2024).

Columns and labels:
[1] = target: T1, HiBit-BRG1 fusion protein (Homo sapiens, UniProt P51532); assay: HiBiT-BRG1 cell-based degradation assay (Nano-Glo HiBiT Lytic Detection); conditions: stable HeLa cell line expressing HiBit-BRG1 and LgBit, 24 h incubation; for Dmax: top dose 30 μM, read-out: BRG1 HiBit Degradation Maximum (%); for DC50: read-out: BRMG1 HiBit Degradation IC50
T1 construct: expressed in transfected cells
Experimental: (§1) Procedure: A stable HeLa cell line expressing HiBiT-BRM was generated. On day 0, 5000 cells were seeded in 40 μL of media into each well of 384-well cell culture plates. On day 1, cells were treated with 120 nL DMSO or 120 nL of 3-fold serially DMSO-diluted compounds (10 points in duplicate with 30 μM as final top dose). Subsequently plates were incubated for 24 h in a standard tissue culture incubator and equilibrated at room temperature for 15 minutes. Nano-Glo HiBiT Lytic Detection System (Promega N3050) reagent was freshly prepared and 20 ul was added to each well. Upon addition of this LgBit-containing reagent, the HiBiT and LgBiT proteins associate to form the luminescent NanoBiT luciferase. The plates were shaken for 10 minutes at room temperature and the bioluminescence read using an EnVision plate reader (PerkinElmer).
For measurement of BRG1 degradation, a stable HeLa cell line expressing HiBit-BRG1 and LgBit was generated. The same protocol as above was then followed.
(§2) The degradation % was calculated using the following formula: % degradation=100%−100%×(LumSample−LumLC)/(LumHC−LumLC). DMSO treated cells are employed as High Control (HC) and 2 μM of a known BRM/BRG1 degrader standard treated cells are employed as Low Control (LC).

HiBit-BRM fusion protein = target: T2, HiBit-BRM fusion protein (Homo sapiens, UniProt P51531); assay: HiBiT-BRM cell-based degradation assay (Nano-Glo HiBiT Lytic Detection); conditions: stable HeLa cell line expressing HiBiT-BRM, 24 h incubation; for BRM HiBit Degradation Maximum (%): top dose 30 μM; for DC50: read-out: BRM HiBit Degradation IC50
T2 construct: expressed in transfected cells
Experimental: as §1, §2

T2 sequence (P51531 whole entry, the tested form may be a part): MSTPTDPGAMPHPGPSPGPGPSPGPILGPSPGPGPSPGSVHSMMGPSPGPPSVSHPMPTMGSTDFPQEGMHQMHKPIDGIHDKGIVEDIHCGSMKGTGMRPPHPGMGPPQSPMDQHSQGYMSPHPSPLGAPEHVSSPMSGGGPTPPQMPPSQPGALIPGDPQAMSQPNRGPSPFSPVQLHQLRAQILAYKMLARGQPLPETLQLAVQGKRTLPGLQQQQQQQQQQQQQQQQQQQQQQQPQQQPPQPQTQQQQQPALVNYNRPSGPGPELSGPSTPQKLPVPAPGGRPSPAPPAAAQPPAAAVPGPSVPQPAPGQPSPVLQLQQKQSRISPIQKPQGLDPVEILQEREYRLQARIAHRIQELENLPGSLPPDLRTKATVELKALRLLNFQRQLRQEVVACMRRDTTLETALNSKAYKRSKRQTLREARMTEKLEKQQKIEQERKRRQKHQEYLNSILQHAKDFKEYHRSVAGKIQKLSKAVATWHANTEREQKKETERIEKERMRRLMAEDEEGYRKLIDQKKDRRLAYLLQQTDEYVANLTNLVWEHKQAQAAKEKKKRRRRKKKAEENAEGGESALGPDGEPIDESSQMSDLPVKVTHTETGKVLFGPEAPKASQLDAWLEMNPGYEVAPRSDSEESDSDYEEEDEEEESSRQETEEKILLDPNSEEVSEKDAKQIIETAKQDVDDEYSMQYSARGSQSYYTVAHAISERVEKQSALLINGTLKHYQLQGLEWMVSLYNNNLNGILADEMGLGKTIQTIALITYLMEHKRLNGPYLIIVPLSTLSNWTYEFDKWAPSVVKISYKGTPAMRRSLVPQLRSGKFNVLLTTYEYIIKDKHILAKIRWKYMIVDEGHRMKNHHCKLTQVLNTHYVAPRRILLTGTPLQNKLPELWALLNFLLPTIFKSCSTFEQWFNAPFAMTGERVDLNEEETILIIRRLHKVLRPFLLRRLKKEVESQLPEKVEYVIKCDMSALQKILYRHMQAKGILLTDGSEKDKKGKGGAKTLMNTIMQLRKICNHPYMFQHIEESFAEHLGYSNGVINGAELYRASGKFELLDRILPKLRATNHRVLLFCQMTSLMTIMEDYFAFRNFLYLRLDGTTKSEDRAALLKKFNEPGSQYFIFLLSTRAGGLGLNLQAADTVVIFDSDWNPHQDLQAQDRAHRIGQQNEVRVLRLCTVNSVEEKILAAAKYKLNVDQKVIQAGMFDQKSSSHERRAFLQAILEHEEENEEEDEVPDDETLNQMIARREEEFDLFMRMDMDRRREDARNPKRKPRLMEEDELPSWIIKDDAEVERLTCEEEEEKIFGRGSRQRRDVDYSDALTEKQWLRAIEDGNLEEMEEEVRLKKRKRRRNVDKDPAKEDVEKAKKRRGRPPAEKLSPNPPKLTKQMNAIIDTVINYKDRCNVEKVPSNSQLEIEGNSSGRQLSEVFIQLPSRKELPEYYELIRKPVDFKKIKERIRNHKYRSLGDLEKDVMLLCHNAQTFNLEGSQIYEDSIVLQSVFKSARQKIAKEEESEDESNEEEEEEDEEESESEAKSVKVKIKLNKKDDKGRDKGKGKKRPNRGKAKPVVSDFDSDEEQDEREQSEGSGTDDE
T1 sequence (P51532 whole entry, the tested form may be a part): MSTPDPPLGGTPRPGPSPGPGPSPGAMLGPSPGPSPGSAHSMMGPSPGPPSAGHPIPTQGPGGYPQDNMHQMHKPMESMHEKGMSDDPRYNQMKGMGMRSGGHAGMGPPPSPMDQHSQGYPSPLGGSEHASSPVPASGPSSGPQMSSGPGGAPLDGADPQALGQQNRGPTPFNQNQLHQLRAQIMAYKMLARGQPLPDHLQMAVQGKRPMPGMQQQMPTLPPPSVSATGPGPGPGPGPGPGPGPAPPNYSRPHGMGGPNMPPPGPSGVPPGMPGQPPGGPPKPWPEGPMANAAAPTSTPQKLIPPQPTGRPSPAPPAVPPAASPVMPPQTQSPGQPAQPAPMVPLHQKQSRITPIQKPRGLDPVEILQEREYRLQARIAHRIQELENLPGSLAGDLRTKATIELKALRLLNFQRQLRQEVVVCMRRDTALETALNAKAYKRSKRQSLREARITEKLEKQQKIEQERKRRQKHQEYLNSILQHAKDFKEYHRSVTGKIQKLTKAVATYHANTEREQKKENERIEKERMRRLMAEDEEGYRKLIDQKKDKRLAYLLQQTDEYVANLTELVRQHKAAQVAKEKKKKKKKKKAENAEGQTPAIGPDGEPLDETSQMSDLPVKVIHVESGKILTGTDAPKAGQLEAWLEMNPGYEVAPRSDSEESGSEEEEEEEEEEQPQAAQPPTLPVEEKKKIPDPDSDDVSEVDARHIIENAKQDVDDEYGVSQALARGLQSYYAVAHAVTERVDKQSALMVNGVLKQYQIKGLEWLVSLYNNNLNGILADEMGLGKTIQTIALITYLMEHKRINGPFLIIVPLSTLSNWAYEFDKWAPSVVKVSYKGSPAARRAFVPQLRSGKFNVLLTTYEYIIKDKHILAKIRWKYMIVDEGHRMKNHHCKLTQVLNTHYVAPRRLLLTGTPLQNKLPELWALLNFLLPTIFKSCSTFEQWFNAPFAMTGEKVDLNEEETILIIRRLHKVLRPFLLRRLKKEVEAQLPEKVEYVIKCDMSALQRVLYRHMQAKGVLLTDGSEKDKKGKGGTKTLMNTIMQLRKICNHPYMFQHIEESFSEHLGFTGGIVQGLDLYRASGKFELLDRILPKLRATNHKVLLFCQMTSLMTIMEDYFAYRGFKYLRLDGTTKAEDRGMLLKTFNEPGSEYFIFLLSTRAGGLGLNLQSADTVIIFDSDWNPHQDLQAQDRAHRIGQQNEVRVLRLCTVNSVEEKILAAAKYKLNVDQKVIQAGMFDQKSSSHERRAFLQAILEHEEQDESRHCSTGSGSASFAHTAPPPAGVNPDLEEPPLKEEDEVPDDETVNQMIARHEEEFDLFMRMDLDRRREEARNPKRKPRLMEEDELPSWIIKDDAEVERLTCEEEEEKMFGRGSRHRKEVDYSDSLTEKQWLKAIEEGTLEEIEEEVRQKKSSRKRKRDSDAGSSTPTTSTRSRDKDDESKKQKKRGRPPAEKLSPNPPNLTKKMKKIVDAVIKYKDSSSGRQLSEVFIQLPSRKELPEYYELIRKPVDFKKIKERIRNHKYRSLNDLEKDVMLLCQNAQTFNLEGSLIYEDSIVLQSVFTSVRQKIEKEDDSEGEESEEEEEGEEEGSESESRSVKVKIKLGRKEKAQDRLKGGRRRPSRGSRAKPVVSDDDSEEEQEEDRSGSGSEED

| Compound | Dmax [1] [%] | DC50 [1] [nM] | DC50 (HiBit-BRM fusion protein) [nM] | BRM HiBit Degradation Maximum (%) (HiBit-BRM fusion protein) |
| --- | --- | --- | --- | --- |
| Cc1ncsc1-c1ccc(CNC(=O)[C@@H]2C[C@@H](O)CN2C(=O)[C@@H](NC(=O)CCN2CCC(c3cc4nnc(-c5ccccc5O)cc4s3)CC2)C(C)(C)C)cc1 [Compound 78, (2S,4R)-4-hydroxy-1-((S)-2-(3-(4-(3-(2-hydroxyphenyl)thieno[3,2-c]pyridazin-6-yl)piperidin-1-yl)propanamido)-3,3-dimethylbutanoyl)-N-(4-(4-methylthiazol-5-yl)benzyl)pyrrolidine-2-carboxamide] | ≥ 75 | ≥ 1000 | ≥ 100 | B (“B” indicates maximum degradation ≥ 50%) |
| Cc1ncsc1-c1ccc(CNC(=O)[C@@H]2C[C@@H](O)CN2C(=O)[C@@H](NC(=O)CCC(=O)N2CCC(c3cc4nnc(-c5ccccc5O)cc4s3)CC2)C(C)(C)C)cc1 [Compound 79, (2S,4R)-4-hydroxy-1-((S)-2-(4-(4-(3-(2-hydroxyphenyl)thieno[3,2-c]pyridazin-6-yl)piperidin-1-yl)-4-oxobutanamido)-3,3-dimethylbutanoyl)-N-(4-(4-methylthiazol-5-yl)benzyl)pyrrolidine-2-carboxamide] | < 50 | ≥ 1000 | ≥ 100 | C (“C” indicates maximum degradation < 50%) |
| Cc1ncsc1-c1ccc(CNC(=O)[C@@H]2C[C@@H](O)CN2C(=O)[C@@H](NC(=O)CCCCC(=O)N2CC(c3sc4nnc(-c5ccccc5O)cc4c3C)C2)C(C)(C)C)cc1 [Compound 18] | < 50 | ≥ 1000 | ≥ 1000 | C (“C” indicates maximum degradation < 50%) |
| Cc1ncsc1-c1ccc([C@H](C)NC(=O)[C@@H]2C[C@@H](O)CN2C(=O)[C@@H](c2cc(OCCN3C[C@H]4C[C@@H](C3)[C@H]4c3sc4nnc(-c5ccccc5O)cc4c3C)no2)C(C)C)cc1 [Compound 62, (2S,4R)-4-hydroxy-1-((R)-2-(3-(2-((1R,5S,6S)-6-(3-(2-hydroxyphenyl)-5-methylthieno[2,3-c]pyridazin-6-yl)-3-azabicyclo[3.1.1]heptan-3-yl)ethoxy)isoxazol-5-yl)-3-methylbutanoyl)-N-((S)-1-(4-(4-methylthiazol-5-yl)phenyl)ethyl)pyrrolidine-2-carboxamide] | < 50 | ≥ 1000 | ≥ 1000 | C (“C” indicates maximum degradation < 50%) |
| Cc1ncsc1-c1ccc(CNC(=O)[C@H]2C[C@H](O)CN2C(=O)[C@H](NC(=O)CCN2CC(c3sc4nnc(-c5ccccc5O)cc4c3C)C2)C(C)(C)C)cc1 [Compound 17] | < 50 | ≥ 1000 | ≥ 1000 | C (“C” indicates maximum degradation < 50%) |
| Cc1ncsc1-c1ccc([C@H](C)NC(=O)[C@@H]2C[C@@H](O)CN2C(=O)[C@@H](c2cc(O[C@H]3CC[C@@H]3N3CCC(c4sc5nnc(-c6ccccc6O)cc5c4C)CC3)no2)C(C)C)cc1 [Compound 36, (2S,4R)-4-hydroxy-1-[(2R)-2-{3-[(1S,2S)-2-{4-[3-(2-hydroxyphenyl)-5-methylthieno[2,3-c]pyridazin-6-yl]piperidin-1-yl}cyclobutoxy]-1,2-oxazol-5-yl}-3-methylbutanoyl]-N-[(1S)-1-[4-(4-methyl-1,3-thiazol-5-yl)phenyl]ethyl]pyrrolidine-2-carboxamide] | < 50 | ≥ 1000 | ≥ 10 | B (“B” indicates maximum degradation ≥ 50%) |
| Cc1ncsc1-c1ccc([C@H](C)NC(=O)[C@@H]2C[C@@H](O)CN2C(=O)[C@@H](c2cc(OCCN3CC(c4c(C)sc5nnc(-c6ccccc6O)cc45)C3)no2)C(C)C)cc1 [Compound 14] | < 50 | ≥ 1000 | ≥ 1000 | C (“C” indicates maximum degradation < 50%) |

The next lines start with results.

| Dmax [1] [%] | DC50 [1] [nM] | DC50 (HiBit-BRM fusion protein) [nM] | Compound | BRM HiBit Degradation Maximum (%) (HiBit-BRM fusion protein) |
| --- | --- | --- | --- | --- |
| < 50 | ≥ 1000 | < 10 | Cc1ncsc1-c1ccc([C@H](C)NC(=O)[C@@H]2C[C@@H](O)CN2C(=O)[C@@H](c2cc(N3CCC(N4CC(c5sc6nnc(-c7ccccc7O)cc6c5C)C4)CC3)no2)C(C)C)cc1 [Compound 113, (2S,4R)-4-hydroxy-1-((R)-2-(3-(4-(3-(3-(2-hydroxyphenyl)-5-methylthieno[2,3-c]pyridazin-6-yl)azetidin-1-yl)piperidin-1-yl)isoxazol-5-yl)-3-methylbutanoyl)-N-((S)-1-(4-(4-methylthiazol-5-yl)phenyl)ethyl)pyrrolidine-2-carboxamide] | A (“A” indicates maximum degradation ≥ 75%) |
| < 50 | ≥ 1000 | ≥ 1000 | Cc1ncsc1-c1ccc([C@H](C)NC(=O)[C@@H]2C[C@@H](O)CN2C(=O)[C@H](c2cc(N3CCC(C(=O)N4CC(c5cc6cc(-c7ccccc7O)nnc6s5)C4)CC3)no2)C(C)C)cc1 [Compound 4, (2S,4R)-4-hydroxy-1-((S)-2-(3-(4-(3-(3-(2-hydroxyphenyl)thieno[2,3-c]pyridazin-6-yl)azetidine-1-carbonyl)piperidin-1-yl)isoxazol-5-yl)-3-methylbutanoyl)-N—((S)-1-(4-(4-methylthiazol-5-yl)phenyl)ethyl)pyrrolidine-2-carboxamide] | C (“C” indicates maximum degradation < 50%) |
| < 50 | ≥ 1000 | ≥ 100 | Cc1ncsc1-c1ccc([C@H](C)NC(=O)[C@@H]2C[C@@H](O)CN2C(=O)[C@@H](c2cc([C@H]3CC[C@H](N4CCC(c5sc6nnc(-c7ccccc7O)cc6c5C)CC4)CC3)no2)C(C)C)cc1 [Compound 38, (2S,4R)-4-hydroxy-1-((R)-2-(3-((1r,4R)-4-(4-(3-(2-hydroxyphenyl)-5-methylthieno[2,3-c]pyridazin-6-yl)piperidin-1-yl)cyclohexyl)isoxazol-5-yl)-3-methylbutanoyl)-N-((S)-1-(4-(4-methylthiazol-5-yl)phenyl)ethyl)pyrrolidine-2-carboxamide] | A (“A” indicates maximum degradation ≥ 75%) |
| < 50 | ≥ 1000 | < 10 | Cc1ncsc1-c1ccc([C@H](C)NC(=O)[C@@H]2C[C@@H](O)CN2C(=O)[C@@H](c2cc(N3CCC(N4CCC(c5cc6nnc(-c7ccccc7O)cc6s5)CC4)CC3)no2)C(C)C)cc1 [Compound 87, (2S,4R)-4-hydroxy-1-((R)-2-(3-(4-(3-(2-hydroxyphenyl)thieno[3,2-c]pyridazin-6-yl)-[1,4′-bipiperidin]-1′-yl)isoxazol-5-yl)-3-methylbutanoyl)-N-((S)-1-(4-(4-methylthiazol-5-yl)phenyl)ethyl)pyrrolidine-2-carboxamide] | A (“A” indicates maximum degradation ≥ 75%) |
| < 50 | ≥ 1000 | ≥ 10 | Cc1ncsc1-c1ccc([C@H](C)NC(=O)[C@@H]2C[C@@H](O)CN2C(=O)[C@@H](c2cc(N3CCC(CN4CC(c5cc6cc(-c7ccccc7O)nnc6s5)C4)CC3)no2)C(C)C)cc1 [Compound 7] | A (“A” indicates maximum degradation ≥ 75%) |
